This is an account of results in ChEMBL document CHEMBL3045294, “Synthesis, anticonvulsant and toxicity screening of thiazolylthiadiazole derivatives” (Med Chem Res, 2011).

By ED50 is commonly meant the dose at which the effect has come halfway, by size or by number of responders. Broadly, the TD50 is the 50% point of the dose-response relation for the toxic effect studied. The low end stands for greater toxicity, the high end for lower toxicity.

Series [1] has as its system Mus musculus. In words: Anticonvulsant activity in ip dosed Mus musculus albino (mouse) assessed as protection against maximal electroshock-induced seizures. The class given is functional. In general terms: Protection in the maximal electroshock model is a classic sign of anticonvulsant action.
The subject of series [2] is Mus musculus. In words: Anticonvulsant activity in ip dosed Mus musculus albino (mouse) assessed as protection against subcutaneous pentylenetetrazol-induced seizures after 0.5 hr. The class given is functional. The note with it: read-out: MED.
For series [3], the system named is Mus musculus. In words: Hepatoxicity in Mus musculus albino (mouse) assessed as effect on alkaline phosphatase level in serum at 3 to 30 mg/kg, ip. Set-up: dose 3-30 mg/kg, route intraperitoneal. As to conditions: in vivo. The class given is toxicity, organism-based.
The test system of series [4] is Mus musculus. The experiment in a line: Anticonvulsant activity in ip dosed Mus musculus albino (mouse) assessed as protection against maximal electroshock-induced seizures after 0.5 hr. The class given is functional. The note with it: read-out: MED.
The test system of series [5] is Mus musculus. The experiment in a line: Anticonvulsant activity in Mus musculus albino (mouse) assessed as protection against subcutaneous pentylenetetrazol-induced seizures at 300 mg/kg, ip after 4 hr. The class given is functional, organism-based. Set-up: dose 300 mg/kg.
The nature of series [6]: Neurotoxicity in ip dosed Mus musculus albino (mouse) after 0.5 hr rotorod test. As to conditions: albino, in vivo. The class given is toxicity, organism-based. A general note: The rotarod test checks motor coordination on a turning rod.
The species named for series [7] is Mus musculus. The experiment in a line: Protective index, ratio of TD50 for Mus musculus albino (mouse) to ED50 for Mus musculus albino (mouse) by maximal electroshock-induced seizures test. The class given is functional.
The subject of series [8] is Mus musculus. The experiment in a line: Anticonvulsant activity in ip dosed Mus musculus albino (mouse) assessed as protection against maximal electroshock-induced seizures after 4 hr. The class given is functional. As to conditions: read-out: MED.
The nature of series [9]: Neurotoxicity in ip dosed Mus musculus albino (mouse) after 4 hr rotorod test. The class given is toxicity, organism-based. The note with it: albino, in vivo.
Series [10] concerns Mus musculus. In words: Anticonvulsant activity in ip dosed Mus musculus albino (mouse) assessed as protection against subcutaneous pentylenetetrazol-induced seizures. The class given is functional.
The test system of series [11] is Mus musculus. The experiment in a line: Hepatoxicity in Mus musculus albino (mouse) assessed as effect on SGOT level in serum at 3 to 30 mg/kg, ip. Also on record: dose 3-30 mg/kg, route intraperitoneal. As to conditions: in vivo. The series is classed as toxicity, organism-based.
Series [12] concerns Mus musculus. The experiment in a line: Hepatoxicity in Mus musculus albino (mouse) assessed as effect on SGPT level in serum at 3 to 30 mg/kg, ip. The note with it: in vivo. The class given is toxicity, organism-based. Set-up: dose 3-30 mg/kg, route intraperitoneal.
Series [13] deals with Mus musculus. In words: Protective index, ratio of TD50 for Mus musculus albino (mouse) to ED50 for Mus musculus albino (mouse) by subcutaneous pentylenetetrazol-induced seizures test. The series is classed as functional.

Active and inactive are the calls of the source. The calls are words filed in the database; no cut-off is given here.

With `COc1ccc(Nc2nnc(Nc3nc(-c4ccc(Br)cc4)cs3)s2)cc1`, the ED50 in [1] came to 27.6 mg/kg; in [10] it was 79.4 mg/kg. The minimal effective dose in series [2] was found to be 100 mg/kg; in series [4], 30 mg/kg; in series [8], 100 mg/kg. The Activity result in series [3], in [11] and in series [12] was “Toxic” in each case. Besides, the result in [5] was inactive. Besides, the MTD at 0.5 h in [6] came to 300 mg/kg. In series [6], this molecule returned a TD50 at 0.5 h of 713 mg/kg. Also, the “Ratio TD50/ED50” value in series [7] is 25.8; in [13] it was 8.9. The MTD at 4 h in series [9] was 300 mg/kg.
